The results in this text go back to ChEMBL document CHEMBL4428074, “The discovery of 2,5-isomers of triazole-pyrrolopyrimidine as selective Janus kinase 2 (JAK2) inhibitors versus JAK1 and JAK3” (Bioorg Med Chem, 2016).

For assay [1], the target named is T1, Tyrosine-protein kinase JAK3 (Homo sapiens, UniProt P52333).
T1 sequence (P52333 whole entry): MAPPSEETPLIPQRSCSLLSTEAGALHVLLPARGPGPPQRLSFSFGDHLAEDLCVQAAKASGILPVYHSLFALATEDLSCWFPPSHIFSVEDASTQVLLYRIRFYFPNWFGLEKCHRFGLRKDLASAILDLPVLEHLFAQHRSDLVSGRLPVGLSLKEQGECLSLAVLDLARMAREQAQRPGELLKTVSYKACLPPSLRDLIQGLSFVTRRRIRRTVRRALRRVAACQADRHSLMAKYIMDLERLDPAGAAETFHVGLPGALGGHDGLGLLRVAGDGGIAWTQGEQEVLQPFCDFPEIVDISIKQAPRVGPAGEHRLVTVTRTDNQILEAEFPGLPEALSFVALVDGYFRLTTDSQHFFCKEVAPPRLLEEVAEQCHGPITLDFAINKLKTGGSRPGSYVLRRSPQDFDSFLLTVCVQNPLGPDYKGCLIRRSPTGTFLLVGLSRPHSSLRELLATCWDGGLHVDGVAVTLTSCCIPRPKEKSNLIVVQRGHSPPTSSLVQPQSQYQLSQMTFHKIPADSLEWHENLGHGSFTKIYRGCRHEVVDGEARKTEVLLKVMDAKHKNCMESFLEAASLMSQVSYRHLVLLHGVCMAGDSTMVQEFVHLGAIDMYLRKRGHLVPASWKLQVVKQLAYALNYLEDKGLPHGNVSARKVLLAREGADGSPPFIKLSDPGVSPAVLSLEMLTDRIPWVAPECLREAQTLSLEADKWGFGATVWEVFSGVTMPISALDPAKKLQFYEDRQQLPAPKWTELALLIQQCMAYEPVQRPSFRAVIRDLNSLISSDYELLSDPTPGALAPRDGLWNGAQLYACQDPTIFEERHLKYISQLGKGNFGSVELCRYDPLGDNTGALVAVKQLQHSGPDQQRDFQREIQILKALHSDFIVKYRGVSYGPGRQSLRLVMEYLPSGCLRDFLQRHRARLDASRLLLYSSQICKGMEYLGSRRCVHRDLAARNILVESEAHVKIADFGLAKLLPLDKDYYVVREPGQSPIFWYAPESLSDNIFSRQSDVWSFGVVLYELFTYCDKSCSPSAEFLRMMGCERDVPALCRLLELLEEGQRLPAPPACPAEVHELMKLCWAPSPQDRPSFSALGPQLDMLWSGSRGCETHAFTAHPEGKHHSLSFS
Description: Inhibition of JAK3 (unknown origin) measured after 1 hr in presence of ATP by TR-FRET assay

In assay [2] the target is Tyrosine-protein kinase JAK1 (Homo sapiens, UniProt P23458).
The test system of assay [3] is HEL 92.1.7. Nature of the assay: cells. Conditions: Homo sapiens, HEL 92.1.7, 72 h. The assay is classed as functional.
Description: Antiproliferative activity against HEL 92.1.7 cells assessed as viable cells at 10 uM measured after 3 days by WST-1 assay
In the next assay the test system is HCC827. It is filed as functional, Homo sapiens. As to conditions: at 30 µM.
The test system of assay [4] is HEL 92.1.7. The assay is classed as functional, Homo sapiens.
Description: Antiproliferative activity against HEL 92.1.7 cells assessed as inhibition of cell growth
In assay [5] the test system is HEL 92.1.7. The experiment in a line: cells. Conditions: Homo sapiens, HEL 92.1.7, 72 h.
Description: Antiproliferative activity against HEL 92.1.7 cells assessed as viable cells measured after 3 days by WST-1 assay

For orientation: IC50 means the concentration needed to halve the response being measured. A higher IC50 goes with a need for much substance. What is called inhibition is the change of the read-out against control, counted positive when it falls. A higher inhibition goes with a strong effect.

Sequence of Tyrosine-protein kinase JAK1 (P23458 whole entry): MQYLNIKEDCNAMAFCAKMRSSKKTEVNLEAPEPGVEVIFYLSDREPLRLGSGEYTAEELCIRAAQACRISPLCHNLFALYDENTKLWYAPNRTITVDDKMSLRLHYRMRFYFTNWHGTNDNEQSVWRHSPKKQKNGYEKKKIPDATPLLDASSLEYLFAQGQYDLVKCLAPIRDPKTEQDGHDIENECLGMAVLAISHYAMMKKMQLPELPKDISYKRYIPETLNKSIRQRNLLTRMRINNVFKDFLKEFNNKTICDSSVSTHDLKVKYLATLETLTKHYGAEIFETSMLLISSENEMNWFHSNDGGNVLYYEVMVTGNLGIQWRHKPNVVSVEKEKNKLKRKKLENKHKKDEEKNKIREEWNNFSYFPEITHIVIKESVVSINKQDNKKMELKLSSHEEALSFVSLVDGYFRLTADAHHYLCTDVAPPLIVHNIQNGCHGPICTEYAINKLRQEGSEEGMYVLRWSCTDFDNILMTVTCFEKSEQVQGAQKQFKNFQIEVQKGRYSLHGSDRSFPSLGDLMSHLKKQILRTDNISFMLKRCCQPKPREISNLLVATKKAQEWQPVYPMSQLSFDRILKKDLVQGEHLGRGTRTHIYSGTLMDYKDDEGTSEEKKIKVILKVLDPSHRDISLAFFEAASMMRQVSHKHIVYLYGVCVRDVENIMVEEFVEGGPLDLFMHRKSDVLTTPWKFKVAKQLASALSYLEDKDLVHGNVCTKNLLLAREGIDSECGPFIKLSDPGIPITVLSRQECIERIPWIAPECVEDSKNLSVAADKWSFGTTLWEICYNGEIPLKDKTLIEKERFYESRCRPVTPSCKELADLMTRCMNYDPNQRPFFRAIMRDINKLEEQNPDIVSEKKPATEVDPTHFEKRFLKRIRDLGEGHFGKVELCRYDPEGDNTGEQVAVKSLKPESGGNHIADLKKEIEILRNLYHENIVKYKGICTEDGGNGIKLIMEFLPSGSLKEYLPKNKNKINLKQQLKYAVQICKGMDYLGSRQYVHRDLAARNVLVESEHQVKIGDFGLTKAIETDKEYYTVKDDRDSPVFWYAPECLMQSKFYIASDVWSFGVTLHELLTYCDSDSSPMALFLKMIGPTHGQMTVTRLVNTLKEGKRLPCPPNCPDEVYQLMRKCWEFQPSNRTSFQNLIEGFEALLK
Description for HCC827: Cytotoxicity against wild-type human HCC827 cells at 30 uM measured after 72 hrs by MTT assay

For `Cc1nn(CCCC#N)nc1-c1ncnc2[nH]ccc12`, the IC50 in assay [1] is 1760 nM; in assay [2] it was 72 nM. For the same molecule, at 10 µM the inhibition in the assay on HEL 92.1.7 [3] was 65.3%.

Molecule `Cc1nn(CCCCCC#N)nc1-c1ncnc2[nH]ccc12` had an IC50 in assay [2] of 186 nM.

In the assay with HEL 92.1.7 [3], `Cc1nn(CC2CCC2)nc1-c1ncnc2[nH]ccc12` came in with an inhibition at 10 µM of 49.8%.

`C=C(C)Cn1nc(C)c(-c2ncnc3[nH]ccc23)n1`: the IC50 in assay [2] amounted to 142 nM. Moreover, at 10 µM the inhibition in the assay with HEL 92.1.7 [3] was 52.7%.

In turn, `Cc1nn(CCCCC#N)nc1-c1ncnc2[nH]ccc12` registered an IC50 in assay [2] of 138 nM. For the same molecule, the inhibition at 10 µM in the assay with HEL 92.1.7 [3] turned out to be 41.3%.

As to `Cc1nn(CC2CCCC2)nc1-c1ncnc2[nH]ccc12`, the inhibition at 10 µM with HEL 92.1.7 [3] is 64.1%.

The molecule `Cc1nn(CCCC(F)(F)F)nc1-c1ncnc2[nH]ccc12` returned an IC50 in assay [2] of 82 nM. Moreover, the inhibition at 10 µM with HEL 92.1.7 [3] was determined as 9.1%.

For the molecule `Cc1nn(CC2CC2)nc1-c1ncnc2[nH]ccc12`, the values for the half-maximal inhibitory concentration (IC50) in assay [1] and in assay [2] were 2440 nM and 444 nM, respectively. In addition, the inhibition at 10 µM with HEL 92.1.7 [3] stood at 44.8%.

As to `N#CC[C@H](C1CCCC1)n1cc(-c2ncnc3[nH]ccc23)cn1` [RUXOLITINIB], the “inhibition (INH)” value in the assay with HCC827 amounted to 16.6%. Also, the “growth inhibition (GI)” value with HEL 92.1.7 [4] worked out at 55%. This molecule also showed an IC50 with HEL 92.1.7 [5] of 14.7 µM.
